Measured values from US20180008587A1, “THIOHYDANTOIN ANDROGEN RECEPTOR ANTAGONISTS FOR THE TREATMENT OF CANCER” (Jaressen Pharmaceutica NV, priority 2016, published 2018).
Positions count from the first letter of the chain named. Like-named read-outs stand apart in the source and are kept apart here.

Legend:
Format in all cases: cell-based
[1] = molecular target: T1, F876L mutant Androgen Receptor (AR-F876L) (Homo sapiens, UniProt P10275, F877L); assay: LNCaP-AR-F876L ANT reporter assay (ARE firefly luciferase, antagonist mode); details: for Emax: read-out: LNCaP-AR-F876L ANT MAX % Inh; for IC50: read-out: LNCaP-AR-F876L ANT pIC50 (converted)
T1 construct: expressed in transfected cells; host or cells: LNCaP (LNCaP F876L)
T1 sequence (P10275 1-920 F877L): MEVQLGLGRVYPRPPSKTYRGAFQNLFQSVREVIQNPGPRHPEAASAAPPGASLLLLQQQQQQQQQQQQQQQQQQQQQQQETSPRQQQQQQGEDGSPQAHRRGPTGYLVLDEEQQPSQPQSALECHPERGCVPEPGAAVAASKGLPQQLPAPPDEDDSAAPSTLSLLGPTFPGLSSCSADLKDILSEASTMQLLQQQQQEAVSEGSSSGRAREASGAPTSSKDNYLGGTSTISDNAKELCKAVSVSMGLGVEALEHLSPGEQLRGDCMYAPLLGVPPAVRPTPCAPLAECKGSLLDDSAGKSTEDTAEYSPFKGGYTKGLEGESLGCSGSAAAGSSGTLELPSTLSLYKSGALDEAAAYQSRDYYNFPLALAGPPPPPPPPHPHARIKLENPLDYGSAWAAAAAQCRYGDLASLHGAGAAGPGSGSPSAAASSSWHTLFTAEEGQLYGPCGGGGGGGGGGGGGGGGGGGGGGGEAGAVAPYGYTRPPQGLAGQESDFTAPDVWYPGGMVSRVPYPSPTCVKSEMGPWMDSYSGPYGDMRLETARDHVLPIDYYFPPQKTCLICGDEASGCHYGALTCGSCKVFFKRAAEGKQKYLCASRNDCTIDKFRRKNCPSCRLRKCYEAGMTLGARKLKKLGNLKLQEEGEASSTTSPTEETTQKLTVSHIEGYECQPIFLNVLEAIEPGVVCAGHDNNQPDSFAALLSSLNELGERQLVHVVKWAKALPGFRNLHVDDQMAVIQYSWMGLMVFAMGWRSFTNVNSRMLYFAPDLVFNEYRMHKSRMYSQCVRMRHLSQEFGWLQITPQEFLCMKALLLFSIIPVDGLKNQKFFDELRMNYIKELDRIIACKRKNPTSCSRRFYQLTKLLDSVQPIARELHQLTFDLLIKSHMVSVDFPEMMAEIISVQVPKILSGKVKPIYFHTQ
In short: (§1)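 LNCaP stable pooled lines expressing ARE-firefly luciferase, in charcoal-stripped serum medium, were exposed to compounds; antagonist mode used agonist at 400 pM (WT) or 600 pM (F876L).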

[2] = molecular target: T2, wild-type Androgen Receptor (AR-wt) (Homo sapiens, UniProt P10275); assay: LNCaP-AR-wt ANT reporter assay (ARE firefly luciferase, antagonist mode); details: for IC50: antagonist mode, 400 pM R-1881 challenge, −Log10(IC50 [Molar]), read-out: LNCaP-AR-wt ANT pIC50 (converted); for Emax: read-out: LNCaP-AR-wt ANT MAX % Inh
T2 construct: expressed in transfected cells; host or cells: LNCaP (LNCaP AR (cs))
T2 sequence (P10275 1-920): T1 sequence (P10275 1-920 F877L) with L877F
In short: as §1

[3] = molecular target: T1, F876L mutant Androgen Receptor (AR-F876L); assay: LNCaP-AR-F876L AG reporter assay (ARE firefly luciferase, agonist mode); details: for Emax: read-out: LNCaP-AR-F876L AG MAX % Stim
In short: (§2)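 Puromycin-selected pooled LNCaP populations expressing AR-wt or AR-F876L are seeded in CSS medium and treated with compound for 20-24 h at 37 °C. For antagonist testing, agonist is added at 400 pM (WT) or 600 pM (F876L). Potency values derive from least-squares fitting of luminescence RLU.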

[4] = molecular target: T2, wild-type Androgen Receptor (AR-wt); assay: LNCaP-AR-wt AG reporter assay (ARE firefly luciferase, agonist mode); details: for Emax: read-out: LNCaP-AR-wt AG MAX % Stim
In short: as §2

[5] = maximum % inhibition of R1881 control response over tested concentration range
[6] = agonist mode, −Log10(EC50 [Molar]), read-out: LNCaP-AR-F876L AG pEC50 (converted)
[7] = maximum % stimulation (agonist response) over tested concentration range
[8] = agonist mode, −Log10(EC50 [Molar]), read-out: LNCaP-AR-wt AG pEC50 (converted)

Emax [1, 5] [%]	IC50 [1] [µM]	IC50 [2] [µM]	Emax [2, 5] [%]	EC50 [3, 6] [µM]	Emax [3, 7] [%]	EC50 [4, 8] [µM]	Emax [4, 7] [%]	Structure (SMILES)	Emax [1] [%]	Emax [2] [%]	EC50 [3] [µM]	Emax [3] [%]	EC50 [4] [µM]	Emax [4] [%]
98.6	0.631	0.513	100	> 15.1	1.4	> 15.1	0.5	N#Cc1ncc(N2C(=O)C3(CCC3)N(c3cccc(F)c3)C2=S)cc1C(F)(F)F [Cpd 90, 5-[8-(3-fluorophenyl)-5-oxo-7-thioxo-6,8-diazaspiro[3.4]octan-6-yl]-3-(trifluoromethyl)pyridine-2-carbonitrile]	–	–	–	–	–	–
92.3	1.05	0.794	96.1	> 15.1	1.5	> 15.1	0.2	N#Cc1ncc(N2C(=O)C3(CCC3)N(c3ccc(C(=O)NCc4cccc(Cl)c4)c(F)c3)C2=S)cc1C(F)(F)F [Cpd 95, N-[(3-chlorophenyl)methyl]-4-[6-[6-cyano-5-(trifluoromethyl)-3-pyridyl]-5-oxo-7-thioxo-6,8-diazaspiro[3.4]octan-8-yl]-2-fluoro-benzamide]	–	–	–	–	–	–
100	0.347	0.407	101	> 15.1	0.8	> 15.1	1.5	N#Cc1ncc(N2C(=O)C3(CCC3)N(c3ccc(C(=O)NCCc4cccnc4)c(F)c3)C2=S)cc1C(F)(F)F [Cpd 96, 4-[6-[6-cyano-5-(trifluoromethyl)-3-pyridyl]-5-oxo-7-thioxo-6,8-diazaspiro[3.4]octan-8-yl]-2-fluoro-N-[2-(3-pyridyl)ethyl]benzamide]	–	–	–	–	–	–
99.6	0.676	0.912	100	> 15.1	–	> 15.1	–	N#Cc1ncc(N2C(=O)C3(CCC3)N(c3cccc(OC(F)(F)F)c3)C2=S)cc1C(F)(F)F [Cpd 97, 5-[5-oxo-7-thioxo-8-[3-(trifluoromethoxy)phenyl]-6,8-diazaspiro[3.4]octan-6-yl]-3-(trifluoromethyl)pyridine-2-carbonitrile]	–	–	–	1.6	–	0.7
85.9	0.389	0.417	97.2	> 15.1	–	> 15.1	–	N#Cc1ncc(N2C(=O)C3(CCC3)N(c3ccc(Oc4ccccc4)cc3)C2=S)cc1C(F)(F)F [Cpd 99, 5-[5-oxo-8-(4-phenoxyphenyl)-7-thioxo-6,8-diazaspiro[3.4]octan-6-yl]-3-(trifluoromethyl)pyridine-2-carbonitrile]	–	–	–	1.6	–	1.6

Second part, the molecule before the results:

Structure (SMILES)	Emax [1, 5] [%]	IC50 [1] [µM]	IC50 [2] [µM]	Emax [2, 5] [%]	EC50 [3, 6] [µM]	Emax [3, 7] [%]	EC50 [4, 8] [µM]	Emax [4, 7] [%]	Emax [1] [%]	Emax [2] [%]	EC50 [3] [µM]	Emax [3] [%]	EC50 [4] [µM]	Emax [4] [%]
N#Cc1ncc(N2C(=O)C3(CCC3)N(c3ccc(C4CCOCC4)cc3)C2=S)cc1C(F)(F)F [Cpd 89, 5-[5-oxo-8-(4-tetrahydropyran-4-ylphenyl)-7-thioxo-6,8-diazaspiro[3.4]octan-6-yl]-3-(trifluoromethyl)pyridine-2-carbonitrile]	96.2	0.437	0.631	101	> 15.1	1.4	> 15.1	0.3	–	–	–	–	–	–
N#Cc1ncc(N2C(=O)C3(CCC3)N(c3ccc(OCCN4CCCCC4)cc3F)C2=S)cc1C(F)(F)F [Cpd 91, 5-[8-[2-fluoro-4-[2-(1-piperidyl)ethoxy]phenyl]-5-oxo-7-thioxo-6,8-diazaspiro[3.4]octan-6-yl]-3-(trifluoromethyl)pyridine-2-carbonitrile]	98.6	0.302	0.537	98.5	> 15.1	1.4	> 15.1	1.1	–	–	–	–	–	–
N#Cc1ncc(N2C(=O)C3(CCC3)N(c3ccc4[nH]ncc4c3)C2=S)cc1C(F)(F)F [Cpd 92, 5-[8-(1H-indazol-5-yl)-5-oxo-7-thioxo-6,8-diazaspiro[3.4]octan-6-yl]-3-(trifluoromethyl)pyridine-2-carbonitrile]	–	0.257	0.631	–	–	–	–	–	98.2	94.7	> 15.1	1.3	> 15.1	2.8
Cc1cc(N2C(=O)C3(CCC3)N(c3ccc(-c4cncnc4)cc3)C2=S)cnc1C#N [Cpd 93, 3-methyl-5-[5-oxo-8-(4-pyrimidin-5-ylphenyl)-7-thioxo-6,8-diazaspiro[3.4]octan-6-yl]pyridine-2-carbonitrile]	–	0.234	0.407	–	–	–	–	–	100	100	> 15.1	0.8	> 15.1	0.9
COc1cc(F)ccc1N1C(=S)N(c2cnc(C#N)c(C(F)(F)F)c2)C(=O)C12CCC2 [Cpd 94, 5-[8-(4-fluoro-2-methoxy-phenyl)-5-oxo-7-thioxo-6,8-diazaspiro[3.4]octan-6-yl]-3-(trifluoromethyl)pyridine-2-carbonitrile]	99.2	0.631	0.724	95	> 15.1	1.5	> 15.1	6	–	–	–	–	–	–
N#Cc1ncc(N2C(=O)C3(CCC3)N(c3ccc(C(F)(F)F)cc3)C2=S)cc1C(F)(F)F [Cpd 98, 5-[5-oxo-7-thioxo-8-[4-(trifluoromethyl)phenyl]-6,8-diazaspiro[3.4]octan-6-yl]-3-(trifluoromethyl)pyridine-2-carbonitrile]	98.9	0.245	0.295	102	> 15.1	1.6	> 15.1	0	–	–	–	–	–	–
COCCOc1ccc(N2C(=S)N(c3cnc(C#N)c(C)c3)C(=O)C23CCC3)cc1F [Cpd 100, 5-[8-[3-fluoro-4-(2-methoxyethoxy)phenyl]-5-oxo-7-thioxo-6,8-diazaspiro[3.4]octan-6-yl]-3-methyl-pyridine-2-carbonitrile]	97.2	0.257	0.417	102	> 15.1	1.7	> 15.1	1.8	–	–	–	–	–	–
